Data taken from patent publication US7414049B2, “4-oxo-2,3,4,5-tetrahydro-benzo[b][1,4]diazepine derivatives” (Hoffmann-La Roche Inc., priority 2006, dated 2008).

How the values were obtained:
[1] = Microsome incubation, metabolic stability (mouse); format: in vitro ADME; details: for microsomal CLint at 10 μM: pH 7.4, liver microsomes, test compound 10 μM, 37° C., read-out: Intrinsic clearance (mouse)
[2] = Microsome incubation, metabolic stability (human); format: in vitro ADME; details: for microsomal CLint at 10 μM: pH 7.4, human liver microsomes 2.0 mg prot/mL, test compound 10 μM, 37° C., read-out: Intrinsic clearance (human)
Protocol: The compounds of formula I of the present invention are further characterized by high metabolic stability. This parameter is a prerequisite for good bioavailability, which is necessary to obtain medicaments with acceptable in-vivo activity. The metabolic stability has been tested by the following method:
Incubation mixtures consisted of liver microsomes (rat 1.0 mg prot/mL or human 2.0 mg prot/mL), test compound 10 μM, MgCl2 (3.3 mM), and an NADPH regenerating system consisting of glucose-6-phosphate dehydrogenase, NADPH and glucose-6-phosphate (equivalent to 1 mM NADPH) in a total volume of 1.0 mL of potassium phosphate buffer 100 mM pH 7.4. Reactions were initiated by addition of the NADPH regenerating system at 37° C. At the time of 1, 5, 9, 13, 17, 21, 25, and 29 min a 5 μL aliquot was directly analysed on a HPLC-MS/MS system consisting of a HP 1100 quaternary pump with degasser and a PE-Sciex API-2000 MS/MS spectrometer. The analytical column was a Waters Symmetry Shield RP8 (2.1*50 mm with a […] particle size). A polarity non linear gradient from phase A (MeOH/Ac. Form. 1% 20/80) to phase B (MeOH) was applied for a total run time of 2 minutes at a flow rate of 0.25 mL/min. The PE-Sciex API-2000 MS/MS spectrometer was used for detection of the parent compound. In vivo metabolic clearance was predicted according to published procedures [Houston, Biochem. Pharmacol. 47:1469-1479 (1994)]. In brief, the intrinsic clearance (Clearance, see table below) is calculated from the measured in vitro half-life taking into account incubation volume and microsomal protein used for the in vitro incubation. The intrinsic clearance is expressed in terms of μl/min/mg microsomal protein. For in vivo extrapolations, the hepatic extraction ratio (E) was calculated. Here it is reported the % MAB value which is equal to 1-E. The MAB (maximal achievable bioavailability) values express the maximal bioavailability that one can achieve with the given clearance values.

[3] = maximal achievable bioavailability = 1-E, extrapolated from intrinsic clearance

| MAB (mouse) ([1]; comparison table) [%] | MAB (human) ([2]; comparison table) [%] | MAB (mouse) [1, 3] [%] | MAB (human) [2, 3] [%] | microsomal CLint at 10 μM [2] [µL/min/mg] | microsomal CLint at 10 μM [1] [µL/min/mg] | SMILES |
| --- | --- | --- | --- | --- | --- | --- |
| – | – | 20.1 | 56.7 | 11.9 | 126 | CC(O)(C(=O)NCC(F)(F)C(F)(F)F)C(=O)N[C@H]1CN(CC(F)(F)F)c2ccc(F)cc2NC1=O (single isomer, unassigned) [Example 3, N-[(S)-7-Fluoro-4-oxo-1-(2,2,2-trifluoro-ethyl)-2,3,4,5-tetrahydro-1H-benzo[b][1,4]diazepin-3-yl]-(R or S)-2-hydroxy-2-methyl-N′-(2,2,3,3,3-pentafluoro-propyl)-malonamide and N-[(S)-7-Fluoro-4-oxo-1-(2,2,2-trifluoro-ethyl)-2,3,4,5-tetrahydro-1H-benzo[b][1,4]diazepin-3-yl]-(S or R)-2-hydroxy-2-methyl-N′-(2,2,3,3,3-pentafluoro-propyl)-malonamide] |
| – | – | 83.0 | 54.3 | 13.1 | 6.5 | CC(O)(C(=O)NCC(F)(F)C(F)(F)F)C(=O)N[C@H]1CN(C(=O)OCC(F)(F)F)c2cc(F)c(F)cc2N(CC(F)(F)F)C1=O (single isomer, unassigned) [Example 2] |
| 19.6 | 55.5 | 19.6 | 55.5 | 12.5 | 130 | CC(O)(C(=O)NCC(F)(F)C(F)(F)F)C(=O)N[C@H]1CN(CC(F)(F)F)c2ccccc2NC1=O (single isomer, unassigned) [Example 4, (R or S)-2-Hydroxy-2-methyl-N-[(S)-4-oxo-1-(2,2,2-trifluoro-ethyl)-2,3,4,5-tetrahydro-1H-benzo[b][1,4]diazepin-3-yl]-N′-(2,2,3,3,3-pentafluoro-propyl)-malonamide and (S or R)-2-Hydroxy-2-methyl-N-[(S)-4-oxo-1-(2,2,2-trifluoro-ethyl)-2,3,4,5-tetrahydro-1H-benzo[b][1,4]diazepin-3-yl]-N′-(2,2,3,3,3-pentafluoro-propyl)-malonamide] |

More lines, now with the values behind:

| SMILES | MAB (mouse) ([1]; comparison table) [%] | MAB (human) ([2]; comparison table) [%] | MAB (mouse) [1, 3] [%] | MAB (human) [2, 3] [%] | microsomal CLint at 10 μM [2] [µL/min/mg] | microsomal CLint at 10 μM [1] [µL/min/mg] |
| --- | --- | --- | --- | --- | --- | --- |
| CC(C(=O)NCC(F)(F)C(F)(F)F)C(=O)N[C@H]1CN(C(=O)OCC2CC2)c2ccccc2N(CC(F)(F)F)C1=O (some centres unmarked) [reference compound] | 47.6 | 26.8 | – | – | – | – |
| CC(O)(C(=O)NCC(F)(F)C(F)(F)F)C(=O)N[C@H]1CN(C(=O)OCCCC(F)(F)F)c2ccccc2N(CCCC(F)(F)F)C1=O (single isomer, unassigned) [Example 13] | – | – | 100 | 87.4 | 2.2 | – |
| CC(O)(C(=O)NCC(F)(F)C(F)(F)F)C(=O)N[C@H]1CN(CCO)c2ccccc2NC1=O (mixture of isomers) [Example 7, (RS)-2-Hydroxy-N-[(S)-1-(2-hydroxy-ethyl)-4-oxo-2,3,4,5-tetrahydro-1H-benzo[b][1,4]diazepin-3-yl]-2-methyl-N′-(2,2,3,3,3-pentafluoro-propyl)-malonamide] | – | – | 49.3 | 74.9 | 5.2 | 32.5 |
